Test results from publication PMC3138527 (2011).

How the values were obtained:
Format in all cases: biochemical
[1] = biological target: T1, triosephosphate isomerase (Tbb TIM) (Trypanosoma brucei, UniProt P04789); assay: activation of the TIM-catalyzed reaction of [[…]-13C]-GA in D2O followed by 1H NMR
[2] = biological target: T1, triosephosphate isomerase (Tbb TIM); assay: 1H NMR turnover in D2O
[3] = biological target: T1, triosephosphate isomerase (Tbb TIM); assay: coupled enzyme assay

T1 sequence (P04789 whole entry): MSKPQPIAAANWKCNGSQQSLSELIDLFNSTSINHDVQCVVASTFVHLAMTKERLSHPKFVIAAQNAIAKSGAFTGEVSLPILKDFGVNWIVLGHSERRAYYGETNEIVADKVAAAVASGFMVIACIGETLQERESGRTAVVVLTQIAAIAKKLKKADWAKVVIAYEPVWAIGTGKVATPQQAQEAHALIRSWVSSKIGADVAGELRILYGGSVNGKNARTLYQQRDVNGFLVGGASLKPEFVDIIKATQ

SMILES: O=[PH](O)O [phosphite dianion]
- Kd [1]: 19 ± 3 mM

SMILES: O=CCO [[1-^13C]-GA, glycolaldehyde]
- 1H NMR turnover in D2O; kcat/Km with saturating phosphite [2]: 64 ± 6 M⁻¹ s⁻¹

SMILES: O=C[C@H](O)COP(=O)(O)O [GAP, (R)-glyceraldehyde 3-phosphate]
- Km [3]: 250 µM
